Experimental data published in patent publication US20210047380A1, “A NEUROTROPHIC PEPTIDE FOR THE THERAPEUTIC TREATMENT OF NEURODEGENERATIVE AND/OR INFLAMMATORY DISEASES” (CONSIGLIO NAZIONALE DELLE RICERCHE, priority 2018, published 2021).

How the values were obtained:
[1] = system: PC12 cells; test: PC12 cell neuronal differentiation test; assay type: cell-based, rat; conditions: serum-free medium, 50 ng/ml mNGF or 100 ng/ml hproNGF-A or hproNGF-B, five-day incubation
[2] = system: PC12 cells; test: Viability test on PC12 cells in suspension after serum deprivation; assay type: cell-based, rat; conditions: 48 hours of culture, 50 ng/ml mNGF or 100 ng/ml hproNGF-A or hproNGF-B
Experimental: FIG. 3B is a histogram showing the results from the viability test performed on PC12 cells in suspension after addition of the factors listed under A above.
PC12 cells were cultured in RPMI 1640 culture medium supplemented with 10% horse serum and 5% calf serum in a humidified atmosphere with 5% CO2 at 37° C. The exponentially growing cells were then seeded on 6-well plates containing poly-L-Lysine, to allow adherence of the cells to the bottom of the well.

[3] = system: hippocampal cells of the dentate gyrus (granule layer and hilus); test: Hoechst-positive cell count in hippocampal dentate gyrus after intranasal administration; assay type: in vivo, rat; conditions: control (healthy) rats, intranasal once a day for four days
Experimental: The broken lines show regions of the Dentate Gyrus (DG-H and DG-Granule Layer) where cell counts were performed, shown in the graphs in FIG. 4B.
To check whether the opposite nature of the two different hproNGF isoforms could affect the number of hippocampal cells and whether the intranasal administration of proNGF could have an effect on diabetes-induced neuronal loss, Hoechst-positive cells were analysed by confocal microscopy in both the cell layers of the hippocampal dentate gyrus, the granule layer (GL) and the hilus (HL) (as shown in FIG. 4A). The rats were deeply anesthetized and transcardially perfused with 0.1 M phosphate buffer followed by 4% paraformaldehyde fixative in 0.1 M phosphate buffer. The brains were removed and cryoprotected with 30% sucrose in phosphate buffer. 40 μm-thick coronal sections of both hemispheres. ranging −2.40 /−3.72 mm from the bregma according to the Paxinos Rat Brain Atlas, were cut on a cryostat and then processed. The brain sections were pre-incubated for 2 hours at room temperature (RT) with PBS containing 10% donkey serum (v/v), 1% BSA (w/v) and 0.3% Triton X-100 (v/v). After washing with PBS, the sections were incubated (2 h, RT) with specific secondary antibodies. Subsequently, the sections were rinsed three times in PBS and incubated for 10 minutes with Hoechst dye for specific staining of the nuclei. […]

[4] = system: hippocampal dentate gyrus neurogenesis; test: Hippocampal neurogenesis (BrdU, DCX, NeuN confocal microscopy) after intranasal administration; assay type: in vivo, rat
Text: The box-plot graphs enclosed by a broken line show the results from the quantitative analyses in healthy rats (A) and diabetic rats (B) of cells that have incorporated BrdU and are at the same time positive for Doublecortin (DCX) (graphs enclosed by a dashed line box) or NeuN (graphs enclosed by a dotted line box). Median±interquartile, n=4 animals per experimental group.
It is also known that diabetic encephalopathy impairs the hippocampal neurogenesis process. In order to assess the effects induced by exogenous administration of the two hproNGF peptide isoforms on hippocampal neurogenesis, the hproNGF-A peptide for use according to the invention and the known hproNGF-B peptide were administered to healthy and diabetic rats.
In order to assess the effects of the treatments on dentate gyrus neurogenesis, at the time of diabetes induction, rats were inoculated with bromodeoxyuridine (BrdU), which intercalates into newly formed DNA, specifically labelling cells proliferating at the time of inoculation. Subsequently, a confocal microscopy analysis was performed by labelling with anti-BrdU antibodies and specific antibodies to detect the presence of immature neurons (antibodies to doublecortin, DCX) or mature neurons (antibodies to NeuN).

[5] = system: hippocampal synaptic plasticity (DG-LTP); test: Long-term potentiation (LTP) in dentate gyrus of hippocampal slices after intranasal administration; conditions: intranasal once a day for four days, 60 minutes after HFS
[6] = system: extracellular proteases; test: Permanence in conditioned culture medium of stimulated PC12 cells (Western blot), resistance to extracellular proteases; assay type: in vitro ADME; conditions: conditioned medium of rat PC12 cells, sampled at 0, 4, 8 and 24 hours post-stimulation
Experimental: (§1) (A) Representative photomicrograph of the results from the Western blot analysis performed on conditioned culture media of rat PC12 cells stimulated with hproNGF-A (upper panel) or mNGF (lower panel) for 24 hours. The samples examined were collected at time 0 and 4, 8 and 24 hours post-stimulation. (B) Representative photomicrographs of the immunolocalization of the tyrosine hydroxylase enzyme on brain tissue (locus coeruleus) sections taken from rats after intranasal administration of proNGFA or mNGF.
In order to assess the resistance of hproNGF-A and mature NGF to the action of extracellular proteases, rat pheochromocytoma cells (PC12) were stimulated with either of the two peptides. Samples collected from conditioned cell culture media at successive times (time zero; 4, 8 and 24 hours post-stimulation) were subjected to Western blot assay in order to verify the permanence of hproNGF-A and mNGF in the culture medium.

[7] = system: noradrenergic fibres in the locus coeruleus; test: Tyrosine hydroxylase immunolocalization in locus coeruleus after intranasal administration (central regulation of sympathetic activity); assay type: in vivo, rat; conditions: adult rats
Experimental: as §1
The present inventors also carried out experiments aimed at testing the effects of the action of NGF and the proNGF-A peptide on the central regulation of the neuronal sympathetic activity. In short, the NGF or proNGF-A peptides were administered intranasally to the brain parenchyma of adult rats. Subsequently, the noradrenergic neurons located in the locus coeruleus, a brain region responsible for the central control of the functionality of the sympathetic nervous system, were analysed by immunolabelling on thin slices for tyrosine hydroxylase enzyme. Tyrosine hydroxylase enzyme represents an indirect measurement of the production of the noradrenaline neurotransmitter in neurons of certain brain areas. […]

Substance	neuronal differentiation of PC12 cells (neurites) [1]	percentage of living cells [2]	number of cells in hilus and granule layer of dentate gyrus compared to saline-treated rats [3]	diabetes-induced alteration in the number of BrdU+-cells ([4]; diabetic rats)	percentage of BrdU+-cells expressing DCX ([4]; diabetic rats)	number of BrdU-immunopositive cells ([4]; healthy rats)	percentage of cells simultaneously immunopositive for BrdU and DCX ([4]; healthy rats)	extent of DG-LTP compared to saline-treated group ([5]; control groups (healthy animals)) [%]	DG-LTP compared to saline-treated diabetic rats (improvement of streptozotocin-induced decrease) ([5]; diabetic rats (streptozotocin))	time the peptide remains in the culture medium after the stimulus [6]	arborization (sprouting) of noradrenergic fibres containing tyrosine hydroxylase in the locus coeruleus [7]
hproNGF-B: already known human proNGF variant (accession number NM_002506.2), precursor of mature NGF, 221 amino acids long	showed evident signs of suffering	induces a decrease in the percentage of living cells	decreased significantly	no influence	no influence	significant reduction	significant reduction	28	not different from that measured in saline-treated diabetic rats		
mNGF: mature Nerve Growth Factor (NGF) peptide, neurotrophin used as comparator	exhibited the characteristic extensions (neurites)	maintain a significant proportion of living cells								not more than 8 hours	causes arborization (sprouting) of the noradrenergic fibres
